Experimental data: ChEMBL document CHEMBL5500324, “The potential of marine-derived piperazine alkaloids: Sources, structures and bioactivities” (Eur J Med Chem, 2024)
Values after ≈ are worked out from the molar mass of the structure shown.

Tests used:
BGC-823 = assay: Cytotoxicity against human BGC-823 cells assessed as reduction in cell growth measured after 72 hrs by MTT assay; type: functional, cell-based; settings: BGC-823, 72 h
MCF7 = assay: Cytotoxicity against human MCF7 cells assessed as reduction in cell growth measured after 72 hrs by MTT assay; type: functional, cell-based; settings: MCF7, 72 h
HL-60 = assay: Antiproliferative activity against human HL-60 cells assessed as reduction in cell growth incubated for 72 hrs by MTT assay; type: functional, cell-based; settings: HL-60, 72 h
K562 = assay: Antiproliferative activity against human K562 cells assessed as reduction in cell growth incubated for 72 hrs by MTT assay; type: functional, cell-based; settings: K562, 72 h
HeLa = assay: Cytotoxicity against human HeLa cells assessed as reduction in cell viability measured for 24 hrs by MTT assay; type: functional, cell-based
ECV-304 = assay: Cytotoxicity against human ECV-304 cells; type: functional, cell-based
HT-29 [1] = assay: Cytotoxicity against human HT-29 cells assessed as inhibition of cell growth; type: functional, cell-based
P388 [2] = assay: Cytotoxicity against mouse P388 cells assessed as inhibition of cell growth; type: functional, cell-based
SK-MEL-28 [3] = assay: Cytotoxicity against human SK-MEL-28 cells assessed as inhibition of cell growth; type: functional, cell-based
CAL-27 = assay: Cytotoxicity against human CAL-27 cells; type: functional, cell-based
A549 [4] = assay: Cytotoxicity against human A549 cells assessed as inhibition of cell growth; type: functional, cell-based
NCI-H929 = assay: Cytotoxicity against human NCI-H929 cells; type: functional, cell-based
A549 [5] = assay: Cytotoxicity against human A549 cells; type: functional, cell-based
HCT-116 = assay: Antiproliferative activity against human HCT-116 cells assessed as reduction in cell viability incubated for 24 hrs by MTT assay; type: functional, cell-based; settings: HCT-116, 24 h
P388 [6] = assay: Cytotoxicity against mouse P388 cells assessed as inhibition of cell growth incubated for 48 hrs; type: functional, cell-based; settings: P388, 48 h
HT-29 [7] = assay: Cytotoxicity against human HT-29 assessed as inhibition of cell growth incubated for 48 hrs; type: functional, cell-based; settings: HT-29, 48 h
A549 [8] = assay: Cytotoxicity against human A549 assessed as inhibition of cell growth incubated for 48 hrs; type: functional, cell-based; settings: A549, 48 h
QG-56 = assay: Cytotoxicity against human QG-56 cells assessed as reduction in cell growth incubated for 24 hrs by MTT assay; type: functional, cell-based; settings: QG-56, 24 h
DU-145 = assay: Cytotoxicity against human DU-145 cells assessed as cell growth inhibition measured after 48 hrs by MTT assay; type: functional, cell-based; settings: DU-145, 48 h
SK-MEL-28 [9] = assay: Cytotoxicity against human SK-MEL-28 assessed as inhibition of cell growth incubated for 48 hrs; type: functional, cell-based; settings: SK-MEL-28, 48 h
BC = assay: Cytotoxicity against human BC cells assessed as inhibition of cell growth; type: functional, cell-based
HepG2 [10] = assay: Cytotoxicity against human HepG2 cells assessed as reduction in cell viability incubated for 72 hrs by SRB assay; type: functional, cell-based; settings: HepG2, 72 h
SF-268 = assay: Cytotoxicity against human SF-268 cells assessed as reduction in cell viability incubated for 72 hrs by SRB assay; type: functional, cell-based; settings: SF-268, 72 h
HepG2 [11] = assay: Cytotoxicity against human HepG2 cells assessed as reduction in cell growth; type: functional, cell-based
[12] = Cytotoxicity against human Huh-7 cells assessed as reduction in cell growth; type: toxicity, cell-based

C=CC(C)(C)[C@@]12C[C@H]3C(=O)N[C@@H](Cc4ccccc4)C(=O)N3[C@@H]1N([C@H]1O[C@]3(C[C@@H]1NC(=O)/C=C/C(C)CC(C)CCCCCC)[C@@H]1O[C@@H]1[C@](O)(CC(C)=O)[C@@H]1O[C@@H]13)c1ccccc12 (stereo not given in full)
IC50 (BGC-823): 8 µM
IC50 (MCF7): 5.4 µM
IC50 (HL-60): 5.4 µM
IC50 (K562): 11.4 µM
IC50 (HeLa): 9.5 µM

COc1cc2c(cc1O)CCN[C@@]21CS[C@@H]2c3c(OC(C)=O)c(C)c4c(c3[C@H](COC1=O)N1[C@@H]2[C@H]2c3c(cc(C)c(OC)c3O)C[C@@H]([C@@H]1O)N2C)OCO4
IC50 (ECV-304): 0.0016 µM
IC50 (HT-29 [1]): 0.0005 mg/L (≈ 0.000656 µM)
IC50 (P388 [2]): 0.2 µM
IC50 (SK-MEL-28 [3]): 0.005 mg/L (≈ 0.00656 µM)
IC50 (CAL-27): 0.0009 µM
IC50 (A549 [4]): 0.0002 mg/L (≈ 0.000263 µM)
IC50 (NCI-H929): 0.0011 µM
IC50 (A549 [5]): 0.0015 µM

COC1=C(C)C(=O)C2=C(C1=O)[C@H]1[C@@H]3CC4=C(C(=O)C(OC)=C(C)C4=O)[C@H](COC(C)=O)N3[C@@H](O)[C@@H](C2)N1C
IC50 (HCT-116): 0.00057 µM
IC50 (P388 [6]): 0.0125 mg/L (≈ 0.0237 µM)
IC50 (HT-29 [7]): 0.0125 mg/L (≈ 0.0237 µM)
IC50 (A549 [8]): 0.0125 mg/L (≈ 0.0237 µM)
IC50 (QG-56): 0.00076 µM
IC50 (DU-145): 0.00049 µM
IC50 (SK-MEL-28 [9]): 0.0125 mg/L (≈ 0.0237 µM)
IC50 (BC): 0.0025 µM

C=CC(C)(C)c1[nH]c2ccccc2c1/C=C1\NC(=O)[C@@]2(CC[C@]3(O)c4cc(C)cc(O)c4C(=O)c4c(O)cc(OC)c2c43)NC1=O
IC50 (HepG2 [10]): 37.3 µM
IC50 (SF-268): 30.1 µM

C[C@H]1CN2CC[C@]34C[C@@]5(C(=O)Nc6c5ccc5c6C(=O)CC(C)(C)O5)C(C)(C)[C@@H]3[C@@]2(C1)C(=O)N4C
IC50 (HepG2 [11]): 3.7 µM
IC50 [12]: 2.8 µM
